Source: US20030212014A1 (priority 2000, published 2003)
Where two headings read alike, the source gives them in different places.

Key:
[1] = system: HUVEC; experiment: Hyperglycemia-induced apoptosis in HUVEC (TUNEL); assay type: cell-based, human; conditions: 30 mM glucose + 1 mM AICAR
Procedure: (A) Typical TUNEL staining (dark brown) with methylene blue counter-staining. TUNEL positive cells show a typical apoptotic configuration with shrinkage and nuclear fragmentation. […] The percentage of TUNEL positive cells was determined in 3 wells of 6 well plates (24 hr) or in eight of 60 mm dishes. Data are means ±SD.*p<0.05; vs 5 mM glucose. † p<0.05; vs 30 mM glucose alone;

[2] = system: caspase-3; experiment: Caspase-3 activity in HUVEC incubated with 30 mM glucose; assay type: cell-based, human; conditions: 30 mM glucose + AICAR, 24 hr
Excerpt: A similar effect was observed when AMPK activity was increased by infecting HUVEC with constitutively active AMPK using an adenoviral vector (FIG. 9C).

[3] = system: acetyl CoA carboxylase (ACC); experiment: Acetyl CoA carboxylase activity in HUVEC incubated with AICAR; assay type: cell-based, human; conditions: 2 mM AICAR
Procedure: (§1) As previously mentioned, AMPK increases fatty acid oxidation in both liver and skeletal muscle by phosphorylation and inhibition of acetyl CoA carboxylase. We wanted to test if this effect of AMPK is also present in endothelial cells. […] A significant decrease was seen within the first 30 minutes of incubation (FIG. 3). ACC activity went down from 163.1±27.0 pmol/min/mg protein at 0 minutes to 61.1±1.1 at 30 minutes (P=0.004), 73.0 ±12.4 at 60 minutes and 51.2±5.0 at 120 minutes (P=0.015). As previously described, ACC activation increases malonyl CoA levels and this in turn inhibits CPT1, the enzyme responsible for the uptake of long chain fatty acyl CoA into the mitochondria where they are oxidized. […] Fatty acid oxidation was measured by the formation of titrated water (^3H2O) in cells incubated with ^3H-palmitate. A significant increase was seen only after a 2-hour incubation (P=0.002). […] (See Table 1A, FIG. 6.) Glucose and fatty acid oxidation, glucose uptake and lactate and pyruvate release were determined in the absence and presence of […] carnitine.
The results described in other tissues are seen in the endothelial cells. […] The presence of ACC is shown by the substantial increase in enzyme activity when 10 mM citrate is present vs. 0 mM citrate. Citrate allosterically activates ACC, but not other enzymes, such as propionyl CoA carboxylase and pyruvate carboxylase, which could also use HCO3^−as substrate. Thus, the increase in radioactive HCO3^−use in the presence of citrate is a reflection of ACC activity only. Similar to AMPK, the activity of ACC is lower in endothelial cells than in skeletal muscle and liver.

[4] = system: liver ACC activity and malonyl CoA; experiment: ACC activity and malonyl CoA in liver two hours after AICAR injection; assay type: in vivo, rat
[5] = system: rats; experiment: Acute effects of AICAR on blood and plasma metabolites and hormones in rats; assay type: in vivo, rat
[6] = system: HUVEC; assay type: cell-based, human
Procedure: as §1
To see if this also occurred in endothelial cells, glucose uptake was measured (Table 1).
In addition, lactate and pyruvate production were measured to see if the rate of glycolysis had changed.
This was not attributable to an increase in glucose oxidation. Glucose oxidation was measured by determining labeled CO2 production when the cells are incubated with ^14C-(U) glucose.
As a result their rate of oxidation can be greatly underestimated unless the tissue is prelabeled with fatty acid. […] Thus, when the HUVEC were pre-incubated with radioactive palmitate for 24 hours prior to ^14CO2 collection (to label the intracellular lipid pools), the measured rate of fatty acid oxidation was increased by 5 fold during the second hour of a two-hour incubation with radioactive palmitate added to the medium. […] (See Table 1A.)

[7] = system: human retinal pericytes; experiment: Ceramide and DAG levels by diacylglycerol kinase method in pericytes; assay type: cell-based
Procedure: Apoptosis was induced by incubating the cells with a medium containing 0-0.5 mM palmitic acid for 3 days. Apoptotic cells were determined by conventional TUNEL staining. Ceramide and DAG levels were measured the by diacylgycerol kinase method using 32P-ATP.

[8] = system: Akt; experiment: Akt phosphorylation in the presence of insulin in HUVEC; assay type: cell-based, human; conditions: 30 mM glucose + 1 mM AICAR, 24 h
Procedure: Results are means±SE (n=4) *p<0.05 vs 5 mM glucose. † p<0.05 vs 30 mM glucose;
We have previously shown that incubation of HUVEC for 2 hr in media containing 30 mM vs 5 mM glucose causes no changes in AMPK activity, malonyl CoA concentration, fatty acid oxidation, or lactate release. […] In addition, it impaired Akt phosphorylation in the presence of insulin (FIG. 11). […] AMPK activity tended to be higher after 24 h of incubation with 30 mM glucose; however, whether it was inappropriately low, in light of the decrease in ATP content (and presumably an increased AMP/ATP ratio), was not ascertained.

[9] = system: rats; conditions: cited from earlier work
[10] = system: Na+/K+ pump; experiment: Radioactive rubidium uptake with and without ouabain in HUVEC; assay type: cell-based, human; conditions: 2 mM AICAR for 2 hours
Procedure: One of the major ATP users, the Na^+/K^+pump, was investigated. The activity of this pump was tested by measuring the uptake of radioactive rubidium in the absence and presence of ouabain, an Na^+/K^+pump inhibitor. The difference in uptake, which is referred to as ouabain-sensitive Rb^+uptake, is the Na^+/K^+pump activity. […] When the ouabain sensitive component was calculated, no ,difference was seen between the two incubations, (2.11±0.9 and 3.3±0.9 pmol/min/mg protein), thus leading us to believe that no change in Na^+/K^+pump activity had occurred. […] The AMPK activity remained high with a longer incubation time up to 120 minutes.

[11] = 1 mM AICAR vs 0.5 mM palmitate alone

**Q.** For `NC(=O)c1ncn([C@@H]2O[C@H](CO)[C@@H](O)[C@H]2O)c1N` [AICAR, 5-aminoimidizole-4-carboxamide riboside], which “apoptotic rate (TUNEL-positive cells)” value ([1]; 24 hours) is on record?
**A.** no affect

**Q.** And the “increase in apoptosis caused by hyperglycemia” value ([1]; 72 hours)?
**A.** completely prevented

**Q.** And the caspase-3 activity [2]?
**A.** 833±14 arbitrary unit

**Q.** And the ACC activity ([3]; at 30 minutes)?
**A.** 61.1±1.1 pmol/min/mg protein

**Q.** What about the ACC activity ([3]; at 60 minutes) of the same compound?
**A.** 73.0 ±12.4 pmol/min/mg protein

**Q.** And the ACC activity ([3]; at 120 minutes)?
**A.** 51.2±5.0 pmol/min/mg protein

**Q.** What about the “dose at which maximal effect on liver ACC activity and malonyl CoA was observed” value [4] of the same compound?
**A.** 500 mg/kg

**Q.** And the “ACC activity in liver” value ([4]; 250 mg/kg)?
**A.** significantly diminished

**Q.** What about the “malonyl CoA concentration in liver” value ([4]; 250 mg/kg) of the same compound?
**A.** significantly diminished

**Q.** What about the blood glucose levels ([5]; 250 mg/kg, 2-6 hours following administration) of the same compound?
**A.** moderately diminished

**Q.** What about the blood lactate ([5]; acute, high doses) of the same compound?
**A.** increase

**Q.** What about the “plasma free fatty acid (FFA) levels” value ([5]; acute, high doses) of the same compound?
**A.** decrease

**Q.** What about the plasma leptin ([5]; all doses studied, at 2 hrs) of the same compound?
**A.** did not significantly alter

**Q.** And the plasma triglycerides ([5]; all doses studied, at 2 hrs)?
**A.** did not significantly alter

**Q.** And the fatty acid oxidation ([6]; 50 pM carnitine added, 3H-palmitate, 2-hour incubation)?
**A.** increased significantly

**Q.** What about the “glucose oxidation (labeled CO2 production)” value ([6]; 14C-(U) glucose, after two hours) of the same compound?
**A.** increased significantly

**Q.** And the lactate production ([6]; AICAR incubation, 2 hours)?
**A.** even more obvious decrease

**Q.** And the pyruvate production ([6]; AICAR incubation, 2 hours)?
**A.** slight, but significant decrease

**Q.** What about the “ATP generated accounted for by fatty acid oxidation” value ([6]; HUVEC incubated 2 hrs in 6 mM glucose with AICAR) of the same compound?
**A.** ~40%

**Q.** And the fatty acid oxidation ([6]; absence of carnitine, 2 hours)?
**A.** did not show any changes

**Q.** And the “levels of ATP measured by bioluminescence” value ([6]; after AICAR incubation)?
**A.** rose

**Q.** And the glucose uptake ([6]; during the AICAR incubation)?
**A.** decreased

**Q.** What about the “calculated rate of ATP generation” value ([6]; no prelabeling (Table 1)) of the same compound?
**A.** significantly diminished

**Q.** And the “ATP generated accounted for by fatty acid oxidation” value ([6]; second hour of two-hour incubation, 24 hours prelabeling with palmitate, with AICAR)?
**A.** 60%

**Q.** What about the DAG levels ([7]; 0.5 mM palmitate + 1 mM AICAR) of the same compound?
**A.** 24±5 nmol/mg protein

**Q.** And the ceramide levels ([7]; 0.5 mM palmitate + 1 mM AICAR)?
**A.** 3.8±1 nmol/mg protein

**Q.** What about the “decrease in DAG levels” value [7, 11] of the same compound?
**A.** 50%

**Q.** And the “decrease in ceramide levels” value [7, 11]?
**A.** 60%

**Q.** What about the “impaired Akt phosphorylation in the presence of insulin caused by 30 mM glucose” value [8] of the same compound?
**A.** completely prevented

**Q.** And the blood glucose levels ([9]; 500 mg/kg/twice daily, control and diabetic rats (U.S. Pat. No. 5,658,889))?
**A.** lowers

**Q.** And the liver size ([9]; 1000 mg/kg body weight daily for 28 days (Winder))?
**A.** hepatic enlargement

**Q.** And the muscle glycogen ([9]; 1000 mg/kg/day for 28 days (Winder et al.))?
**A.** increased

**Q.** And the “ouabain-sensitive Rb+ uptake (Na+/K+ pump activity)” value [10]?
**A.** 3.3±0.9 pmol/min/mg protein

**Q.** And the total rubidium uptake [10]?
**A.** 6.0 ±0.3 pmol/min/mg protein
